Assay results taken from patent US20220249504A1, “LONGEVITY SIGNATURES AND THEIR APPLICATIONS” (The Brigham and Women's Hospital, Inc., priority 2019, published 2022).
“Also recorded” adds a separate entry of the source.

Tests used:
Type in all cases: in vivo, mouse
longevity signatures = test: GSEA-based association of hepatic gene expression response (RNAseq, UM-HET3 mice on compound diet for 1 month) with longevity signatures; details: UM-HET3 male mice, compound in diet for 1 month, liver RNAseq
From the text: Four-month old UM-HET3 mice were subjected to diets for 1 month, followed by gene expression analyses.
To validate the above approach and predictions, specific gene expression datasets were chosen from the GEO database that correspond to the effect of certain interventions considered to be health- and lifespan-extending or shortening on mouse liver (FIG. 16). […] UM-HET3 mice were then subjected to these compounds for 1 month, at which point the mice were sacrificed and subjected to gene expression analysis. Finally, the association GSEA-based test was applied to validate the findings (FIG. 16).
Second, diets were prepared for 24 of the identified compounds. These diets were administered to mice for 1 month, and ensuing gene expression changes were monitored. […]
For samples corresponding to lifespan-extending interventions, paired-end sequencing with 100 bp read length was performed on illumine HiSeq2000 platform. For samples corresponding to predicted compounds, libraries were prepared as described in (Hashimshony et al., 2016) and sequenced with 100 bp read length option on the Illumina HiSeq2500. […] Processed/cleaned reads were then mapped with STAR (version 2.5.2b) (Dobin et al., 2013) and counted via featureCounts (Liao et al., 2014). […]

C57BL/6 mice [1] = test: Frailty index of old C57BL/6 mice on compound diet
Procedure: (§1) Briefly, 24-28 mice per intervention were used, with an approximately equal number of males and females. Mice were first assessed with regard to frailty index and gait speed, and then randomized to make sure the experimental and control groups had the same average frailty index and gait speed. Mice were then given a diet containing a compound of interest. […] Mice were monitored daily until they died. A separate cohort of old mice was assessed for frailty index and gait speed.
as §1, with “females. They” for “females. Mice”

C57BL/6 mice [2] = test: Gait speed of old C57BL/6 mice on compound diet; details: 31-month-old C57BL/6 male mice
Procedure: as §1
as §1, with “females. They” for “females. Mice”

C57BL/6 mice [3] = test: Glucose tolerance in old C57BL/6 mice on compound diet; details: old C57BL/6 mice at the dose given in diet (AZD-8055: 23-month-old, treated 2.5 months)
Procedure: 23-month-old mice were treated for 2.5 months prior to analyses.

C57BI/6 mice = test: Lifespan of old (2-year-old) C57BL/6 mice given a diet containing the compound
Procedure: as §1
Interventions were predicted in a screen based on the gene expression longevity signatures that we developed. The predicted interventions were then verified for gene expression responses in human and mouse primary cell culture (hepatocytes) and in live mice (after mice were fed for 1 month with the diets containing these interventions). The interventions that passed these tests were further assessed for the effect on lifespan of 2-year-old C57BI/6 mice. Older mice (2-year-old) were chosen for this experiment in order to mimic the effect of giving interventions to human subjects in their second half of life.
as §1, with “females. They” for “females. Mice”

[4] = tested on: immune cells in the spleen; test: Population of immune cells in the spleen by FACS; details: 27-month-old C57BI/6 females
Procedure: Population of immune cells in the spleen is not altered by Selumetinib (n=7 for Control, n=12 for Selumetinib). 27-month-old C57BI/6 females were used. Cells were analyzed by FACS: B-cells are CD45+CD19+, T-cells are CD45+CD3+, and myeloid cells are CD45+CD11b+.

Row | Compound | Association of hepatic gene expression response with longevity signatures (longevity signatures) | Effect on frailty index (C57BL/6 mice [1]; 31-month-old C57BL/6 male mice) | Effect on gait speed (C57BL/6 mice [2]) | Effect on glucose tolerance (C57BL/6 mice [3]) | Effect on lifespan (C57BI/6 mice; C57BL/6 male mice, given late in life, ad libitum in diet (AZD-8055 20 mg/kg of food, LY294002 600 mg/kg, KU-0063794 10 mg/kg of diet)) | Effect on frailty index (C57BL/6 mice [1]; 31-month-old C57BL/6 female mice) | Relative populations of immune cells in the spleen (B-cells, T-cells, myeloid cells) [4] | Effect on lifespan (C57BI/6 mice; C57BL/6 mice (Selumetinib: males and females combined), given late in life, ad libitum (Selumetinib 100 mg/kg of diet, Celastrol 8 mg/kg of food)) | Effect on lifespan (C57BI/6 mice; independent cohort of female C57BL/6 mice, Selumetinib 100 mg/kg of diet)
1 | COc1ccc(-c2ccc3c(N4CCOCC4)nc(N4C[C@@H](C)O[C@@H](C)C4)nc3n2)cc1CO [KU-0063794, rel-5-[2-[(2R,6S)-2,6-dimethyl-4-morpholinyl]-4-(4-morpholinyl)pyrido[2,3-d]pyrimidin-7-yl]-2-methoxybenzenemethanol] | consistent positive association with all lifespan-extending interventions, except for rapamycin | improved | improved | No effect; also recorded: did not have a significant effect | extend lifespan | – | – | – | –
2 | Cn1cnc2c(F)c(Nc3ccc(Br)cc3Cl)c(C(=O)NOCCO)cc21 [Selumetinib, 6-(4-Bromo-2-chloroanilino)-7-fluoro-N-(2-hydroxyethoxy)-3-methylbenzimidazole-5-carboxamide] | – | – | – | – | – | improves | not altered; also recorded: does not alter | extends lifespan | extends lifespan
3 | C1COC(NC(C2CC2)C2CC2)=N1 [rilmenidine, N-(Dicyclopropylmethyl)-4,5-dihydro-1,3-oxazol-2-amine] | positive association with some of the signatures, including CR and GH deficiency, but not with the signatures associated with the lifespan extension effect | – | – | – | – | – | – | – | –
